Read-outs that look alike come from different tables or passages of the source.
Tests used:
[1] = test system: Leptosphaeria nodorum (LEPTNO); test: In vitro fungitoxicity of hydrazones with and without copper towards Leptosphaeria nodorum (Example 26); format: cell-based; details: for inhibition of growth at 0.05 µg/mL: Parastagonospora nodorum, 72 h, read-out: LEPTNO % Inhn. Minus Copper Observed; for LEPTNO % Inhn. Plus Copper Observed: copper-plus medium (CuCl2.2H2O)
[2] = test system: Phytophthora infestans; format: in vivo, Phytophthora infestans on tomato; details: hydrazone 50 ppm + 50 μM CuCl2.2H2O, applied 24 h before inoculation, assessed 7 days after inoculation, tomato
[3] = compound 0.05 μg/mL, copper-minus medium, 72 h at 25° C.
[4] = compound 0.05 μg/mL, 72 h at 25° C.

Structure (SMILES)	inhibition of growth at 0.05 µg/mL [1, 3] [%]	LEPTNO % Inhn. Plus Copper Observed [1, 4] [%]	TLB % Control [2] [%]	inhibition of growth at 0.05 µg/mL [1] [%]
O=C(N/N=C/c1cc(Br)cc(Br)c1O)c1ccc(Cl)cc1 [Example 120]	19.9	98.2	92.6	–
O=C(N/N=C/c1cc(Br)cc(Br)c1O)c1cccc(Cl)c1 [Example 122]	13.5	98.7	92.7	–
O=C(Cc1ccc(F)cc1)N/N=C/c1cc(Cl)cc(Cl)c1O [Example 126]	13.2	92.4	73.0	–
C/C(=N\NC(=O)c1ccccc1[N+](=O)[O-])c1ccccc1O [Example 127]	0	97.1	40.0	–
C/C(=N\NC(=O)Cc1ccccc1)c1ccccc1O [Example 128]	10.8	88.6	38.0	–
CC/C(=N\NC(=O)c1ccccc1)c1ccccc1O [Example 130]	1.2	98.6	50.8	–
C/C(=N\NC(=O)c1ccc(Br)cc1)c1cc(Cl)cc(Cl)c1O [Example 139]	1.7	97.1	93.0	–
O=C(N/N=C/c1cc(Br)cc([N+](=O)[O-])c1O)c1ccccc1 [Example 144]	0	98.5	87.0	–
O=C(N/N=C/c1cccc([N+](=O)[O-])c1O)c1ccccc1 [Example 145]	2.4	97.2	55.9	–
COc1ccc(/C=N/NC(=O)c2ccccc2)c(O)c1 [Example 147]	0	95.6	13.5	–
O=C(N/N=C/c1cc(Br)ccc1O)c1ccccc1 [Example 148]	15.4	97.9	72.9	–
COc1cccc(/C=N/NC(=O)c2ccccc2)c1O [Example 149]	0	97.1	22.1	–
O=C(N/N=C/c1cc(Cl)cc([N+](=O)[O-])c1O)c1ccccc1 [Example 150]	10	97.5	87.5	–
O=C(N/N=C/c1cc([N+](=O)[O-])ccc1O)c1ccccc1 [Example 152]	0	89.1	26.0	–
O=C(N/N=C/c1cc([N+](=O)[O-])cc(Br)c1O)c1ccccc1 [Example 153]	0	97.0	34.6	–
COc1ccc(O)c(/C=N/NC(=O)c2ccccc2)c1 [Example 154]	3.4	70.7	36.6	–
COc1cc([N+](=O)[O-])cc(/C=N/NC(=O)c2ccccc2)c1O [Example 155]	1.9	78.3	32.0	–
COc1cc(Br)cc(/C=N/NC(=O)c2ccccc2)c1O [Example 156]	7.4	94.8	51.5	–
Cc1ccccc1C(=O)N/N=C/c1cc(Cl)ccc1O [Example 157]	7.8	96.9	61.8	–
Cc1ccccc1C(=O)N/N=C/c1cc(Br)ccc1O [Example 158]	6.2	96.9	84.7	–
O=C(N/N=C/c1cc(Br)ccc1O)c1ccccc1Br [Example 160]	3.4	96.1	65.5	–
O=C(N/N=C/c1cc(Cl)cc(Br)c1O)c1ccccc1Cl [Example 161]	7	97.7	58.2	–
O=C(N/N=C/c1cc(Cl)cc(Br)c1O)c1cccc(Br)c1 [Example 163]	5.9	98.0	87.7	–
O=C(N/N=C/c1cc(Cl)cc(Br)c1O)c1ccccc1F [Example 169]	2.7	98.1	78.9	–
O=C(N/N=C/c1cc(Br)ccc1O)c1ccccc1Cl [Example 170]	0	94.5	65.5	–
O=C(N/N=C/c1cc(Br)ccc1O)c1ccc(Cl)cc1 [Example 171]	4	98.3	15.8	–

Structure (SMILES)	inhibition of growth at 0.05 µg/mL [1, 3] [%]	LEPTNO % Inhn. Plus Copper Observed [1, 4] [%]	TLB % Control [2] [%]	inhibition of growth at 0.05 µg/mL [1] [%]
O=C(N/N=C/c1ccccc1O)c1ccc(Br)cc1 [Example 173]	8.3	97.7	12.2	–
Cc1cccc(C(=O)N/N=C/c2ccccc2O)c1 [Example 174]	0	97.0	72.7	–
O=C(N/N=C/c1ccccc1O)c1cccc(Cl)c1 [Example 175]	4.9	97.9	80.0	–
O=C(N/N=C/c1cc(Br)ccc1O)c1cccc(Cl)c1 [Example 176]	8.8	98.2	61.4	–
O=C(N/N=C/c1cc(Cl)ccc1O)c1cccc(Cl)c1 [Example 178]	8.5	98.3	59.3	–
Cc1ccc(C(=O)N/N=C/c2cc(Br)ccc2O)cc1 [Example 179]	18.7	98.0	35.1	–
Cc1ccc(C(=O)N/N=C/c2cc(Cl)ccc2O)cc1 [Example 180]	10.8	95.1	43.9	–
O=C(N/N=C/c1cc(Cl)ccc1O)c1cccc(Br)c1 [Example 181]	16	97.6	90.5	–
COc1cccc(C(=O)N/N=C/c2cc(Br)ccc2O)c1 [Example 185]	0	95.2	54.6	–
O=C(N/N=C/c1cc(Cl)ccc1O)c1ccc(C(F)(F)F)cc1 [Example 187]	–	97.5	92.7	20.7
COc1cccc(C(=O)N/N=C/c2cc(Cl)ccc2O)c1 [Example 188]	7.9	96.5	74.6	–
O=C(N/N=C/c1cc(Cl)ccc1O)c1ccccc1Br [Example 190]	5.6	95.7	70.9	–
O=C(N/N=C/c1cc(Cl)ccc1O)c1ccc(Br)cc1 [Example 191]	15.4	98.1	29.8	–
O=C(N/N=C/c1cc(Cl)cc(Br)c1O)c1cccc(Cl)c1 [Example 192]	7.8	94.7	84.2	–
O=C(N/N=C/c1cc(Cl)cc(Br)c1O)c1ccccc1Br [Example 193]	0	95.1	80.0	–
Cc1cccc(C(=O)N/N=C/c2cc(Cl)cc(Br)c2O)c1 [Example 194]	–	96.9	80.4	16.1
O=C(N/N=C/c1cc([N+](=O)[O-])ccc1O)c1ccc(Cl)cc1 [Example 197]	0	97.1	43.7	–
O=C(N/N=C/c1cc(I)cc(I)c1O)c1ccc(Cl)cc1 [Example 198]	11.8	97.7	75.4	–
O=C(N/N=C/c1cc(Cl)cc([N+](=O)[O-])c1O)c1ccc(Cl)cc1 [Example 199]	4	98.0	56.1	–
COc1ccc(/C=N/NC(=O)c2ccc(Cl)cc2)c(O)c1 [Example 200]	0	95.0	78.9	–
Cc1ccc(C(=O)N/N=C/c2cc([N+](=O)[O-])cc(Br)c2O)cc1 [Example 202]	2	96.6	49.1	–
COc1cc(Br)cc(/C=N/NC(=O)c2cccc(Cl)c2)c1O [Example 203]	6.9	95.7	56.4	–
COc1cc(Br)cc(/C=N/NC(=O)c2ccc(Cl)cc2)c1O [Example 205]	15.4	97.2	78.9	–
COc1cc(Br)cc(/C=N/NC(=O)c2ccc(C)cc2)c1O [Example 206]	16.4	98.4	80.7	–
C/C(=N\NC(=O)c1ccccc1Cl)c1ccccc1O [Example 212]	0	95.2	14.0	–
C/C(=N\NC(=O)c1ccccc1O)c1ccccc1O [Example 213]	3.7	98.8	56.1	–
